{
  "source": "ChEMBL document CHEMBL1153282",
  "about": "“N-substituted 2'-(aminoaryl)benzothiazoles as kinase inhibitors: hit identification and scaffold hopping” (Bioorg Med Chem Lett, 2009)",
  "key": {"[1]": {"target": "Vascular endothelial growth factor receptor 2 (Homo sapiens, UniProt P35968)", "experiment": "Inhibition of VEGFR2 by virtual HTS assay"}, "[2]": {"target": "Angiopoietin-1 receptor (Homo sapiens, UniProt Q02763)", "experiment": "Inhibition of TIE2 by virtual HTS assay"}, "[3]": {"target": "T1, Ephrin type-B receptor 4 (Homo sapiens, UniProt P54760)", "T1 sequence (P54760 whole entry)": "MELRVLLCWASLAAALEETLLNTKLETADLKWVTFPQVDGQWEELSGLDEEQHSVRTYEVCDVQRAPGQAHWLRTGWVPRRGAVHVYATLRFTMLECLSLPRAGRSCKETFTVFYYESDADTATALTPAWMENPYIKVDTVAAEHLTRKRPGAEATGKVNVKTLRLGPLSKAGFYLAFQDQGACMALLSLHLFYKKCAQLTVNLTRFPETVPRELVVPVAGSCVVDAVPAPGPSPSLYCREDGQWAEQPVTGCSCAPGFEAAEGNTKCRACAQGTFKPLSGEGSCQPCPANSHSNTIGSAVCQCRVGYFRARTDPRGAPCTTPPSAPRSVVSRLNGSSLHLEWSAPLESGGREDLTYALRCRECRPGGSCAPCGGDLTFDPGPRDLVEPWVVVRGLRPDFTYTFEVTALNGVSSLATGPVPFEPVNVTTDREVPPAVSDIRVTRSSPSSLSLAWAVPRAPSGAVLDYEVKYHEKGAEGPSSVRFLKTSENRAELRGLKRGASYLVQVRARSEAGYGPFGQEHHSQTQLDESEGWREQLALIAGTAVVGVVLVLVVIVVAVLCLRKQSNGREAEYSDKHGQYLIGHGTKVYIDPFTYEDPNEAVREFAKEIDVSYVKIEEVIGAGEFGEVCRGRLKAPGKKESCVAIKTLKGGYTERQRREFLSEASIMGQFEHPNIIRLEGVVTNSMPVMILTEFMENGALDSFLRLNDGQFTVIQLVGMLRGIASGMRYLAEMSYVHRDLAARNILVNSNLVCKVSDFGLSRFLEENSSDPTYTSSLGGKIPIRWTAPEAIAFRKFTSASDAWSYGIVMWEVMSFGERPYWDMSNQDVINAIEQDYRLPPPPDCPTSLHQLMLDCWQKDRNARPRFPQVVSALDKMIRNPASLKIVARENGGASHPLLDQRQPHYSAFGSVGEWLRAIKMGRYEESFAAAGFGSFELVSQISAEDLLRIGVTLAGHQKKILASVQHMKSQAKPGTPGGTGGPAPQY", "experiment": "Inhibition of EphB4 by virtual HTS assay"}, "[4]": {"target": "Platelet-derived growth factor receptor beta (Homo sapiens, UniProt P09619)", "experiment": "Inhibition of PDGFRbeta by virtual HTS assay"}, "[5]": {"target": "T2, Aurora kinase A (Homo sapiens, UniProt O14965)", "T2 sequence (O14965 whole entry)": "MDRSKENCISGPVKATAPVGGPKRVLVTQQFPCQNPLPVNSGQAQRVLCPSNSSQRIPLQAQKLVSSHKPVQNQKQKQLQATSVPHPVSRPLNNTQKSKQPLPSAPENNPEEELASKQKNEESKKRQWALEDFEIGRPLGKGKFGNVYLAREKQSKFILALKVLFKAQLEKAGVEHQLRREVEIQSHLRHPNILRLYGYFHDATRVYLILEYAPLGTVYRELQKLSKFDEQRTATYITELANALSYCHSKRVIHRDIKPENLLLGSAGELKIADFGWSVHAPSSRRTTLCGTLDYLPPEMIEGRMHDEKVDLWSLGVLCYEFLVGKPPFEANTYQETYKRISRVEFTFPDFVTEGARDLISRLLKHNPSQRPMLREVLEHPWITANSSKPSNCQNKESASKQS", "experiment": "Inhibition of Aurora A by virtual HTS assay"}, "[6]": {"target": "Vascular endothelial growth factor receptor 3 (Homo sapiens, UniProt P35916)", "sequence (P35916 whole entry)": "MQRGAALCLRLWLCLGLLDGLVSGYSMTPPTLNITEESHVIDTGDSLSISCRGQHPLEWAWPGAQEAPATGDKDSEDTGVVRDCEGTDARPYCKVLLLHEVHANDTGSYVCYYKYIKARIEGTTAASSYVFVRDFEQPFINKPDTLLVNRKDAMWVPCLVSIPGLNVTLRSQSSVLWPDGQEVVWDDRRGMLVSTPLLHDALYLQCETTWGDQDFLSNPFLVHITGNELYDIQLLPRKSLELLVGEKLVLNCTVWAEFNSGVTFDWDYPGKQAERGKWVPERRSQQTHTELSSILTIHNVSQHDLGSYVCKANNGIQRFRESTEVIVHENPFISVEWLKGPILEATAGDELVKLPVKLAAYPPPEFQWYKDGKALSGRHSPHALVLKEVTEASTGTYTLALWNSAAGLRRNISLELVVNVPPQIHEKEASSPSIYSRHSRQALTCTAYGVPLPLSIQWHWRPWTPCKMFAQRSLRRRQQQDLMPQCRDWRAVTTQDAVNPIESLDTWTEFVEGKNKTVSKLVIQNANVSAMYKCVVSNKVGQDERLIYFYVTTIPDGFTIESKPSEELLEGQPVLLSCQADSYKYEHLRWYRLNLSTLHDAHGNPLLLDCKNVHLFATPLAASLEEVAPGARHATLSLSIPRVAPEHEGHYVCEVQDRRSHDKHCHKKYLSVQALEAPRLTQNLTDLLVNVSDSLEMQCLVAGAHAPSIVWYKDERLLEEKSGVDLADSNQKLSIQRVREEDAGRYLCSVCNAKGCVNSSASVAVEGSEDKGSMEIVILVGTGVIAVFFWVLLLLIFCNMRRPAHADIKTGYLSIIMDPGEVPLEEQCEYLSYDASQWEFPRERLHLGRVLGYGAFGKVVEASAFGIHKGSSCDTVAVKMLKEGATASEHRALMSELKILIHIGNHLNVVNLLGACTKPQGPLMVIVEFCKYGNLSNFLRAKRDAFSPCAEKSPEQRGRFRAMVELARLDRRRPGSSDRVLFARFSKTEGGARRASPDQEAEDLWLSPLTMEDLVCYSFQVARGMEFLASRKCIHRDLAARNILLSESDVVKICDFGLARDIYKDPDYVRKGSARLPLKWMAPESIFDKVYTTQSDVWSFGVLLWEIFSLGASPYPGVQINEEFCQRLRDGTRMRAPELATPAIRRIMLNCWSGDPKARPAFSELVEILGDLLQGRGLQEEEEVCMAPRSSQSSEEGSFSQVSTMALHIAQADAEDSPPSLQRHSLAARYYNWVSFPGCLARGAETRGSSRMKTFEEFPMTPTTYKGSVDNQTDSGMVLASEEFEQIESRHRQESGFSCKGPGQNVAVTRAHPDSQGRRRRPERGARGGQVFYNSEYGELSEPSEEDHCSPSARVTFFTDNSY", "description": "Inhibition of VEGFR3 by virtual HTS assay"}, "[7]": {"target": "Insulin receptor (Homo sapiens, UniProt P06213)", "experiment": "Inhibition of insulin receptor by virtual HTS assay"}, "[8]": {"target": "Aurora kinase B (Homo sapiens, UniProt Q96GD4)", "sequence (Q96GD4 whole entry)": "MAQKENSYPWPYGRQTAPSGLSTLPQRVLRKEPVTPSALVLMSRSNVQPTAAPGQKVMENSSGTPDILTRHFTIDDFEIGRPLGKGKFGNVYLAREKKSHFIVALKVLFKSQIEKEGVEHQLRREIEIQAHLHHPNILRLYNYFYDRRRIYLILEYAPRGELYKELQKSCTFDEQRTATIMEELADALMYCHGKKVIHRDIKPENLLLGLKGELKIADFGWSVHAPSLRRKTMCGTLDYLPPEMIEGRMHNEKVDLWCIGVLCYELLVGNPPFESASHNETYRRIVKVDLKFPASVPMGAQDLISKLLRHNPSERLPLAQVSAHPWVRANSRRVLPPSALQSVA", "experiment": "Inhibition of Aurora B by virtual HTS assay"}, "[9]": {"target": "Focal adhesion kinase 1 (Homo sapiens, UniProt Q05397)", "experiment": "Inhibition of FAK by virtual HTS assay"}, "[10]": {"target": "Epidermal growth factor receptor (Homo sapiens, UniProt P00533)", "sequence (P00533 whole entry)": "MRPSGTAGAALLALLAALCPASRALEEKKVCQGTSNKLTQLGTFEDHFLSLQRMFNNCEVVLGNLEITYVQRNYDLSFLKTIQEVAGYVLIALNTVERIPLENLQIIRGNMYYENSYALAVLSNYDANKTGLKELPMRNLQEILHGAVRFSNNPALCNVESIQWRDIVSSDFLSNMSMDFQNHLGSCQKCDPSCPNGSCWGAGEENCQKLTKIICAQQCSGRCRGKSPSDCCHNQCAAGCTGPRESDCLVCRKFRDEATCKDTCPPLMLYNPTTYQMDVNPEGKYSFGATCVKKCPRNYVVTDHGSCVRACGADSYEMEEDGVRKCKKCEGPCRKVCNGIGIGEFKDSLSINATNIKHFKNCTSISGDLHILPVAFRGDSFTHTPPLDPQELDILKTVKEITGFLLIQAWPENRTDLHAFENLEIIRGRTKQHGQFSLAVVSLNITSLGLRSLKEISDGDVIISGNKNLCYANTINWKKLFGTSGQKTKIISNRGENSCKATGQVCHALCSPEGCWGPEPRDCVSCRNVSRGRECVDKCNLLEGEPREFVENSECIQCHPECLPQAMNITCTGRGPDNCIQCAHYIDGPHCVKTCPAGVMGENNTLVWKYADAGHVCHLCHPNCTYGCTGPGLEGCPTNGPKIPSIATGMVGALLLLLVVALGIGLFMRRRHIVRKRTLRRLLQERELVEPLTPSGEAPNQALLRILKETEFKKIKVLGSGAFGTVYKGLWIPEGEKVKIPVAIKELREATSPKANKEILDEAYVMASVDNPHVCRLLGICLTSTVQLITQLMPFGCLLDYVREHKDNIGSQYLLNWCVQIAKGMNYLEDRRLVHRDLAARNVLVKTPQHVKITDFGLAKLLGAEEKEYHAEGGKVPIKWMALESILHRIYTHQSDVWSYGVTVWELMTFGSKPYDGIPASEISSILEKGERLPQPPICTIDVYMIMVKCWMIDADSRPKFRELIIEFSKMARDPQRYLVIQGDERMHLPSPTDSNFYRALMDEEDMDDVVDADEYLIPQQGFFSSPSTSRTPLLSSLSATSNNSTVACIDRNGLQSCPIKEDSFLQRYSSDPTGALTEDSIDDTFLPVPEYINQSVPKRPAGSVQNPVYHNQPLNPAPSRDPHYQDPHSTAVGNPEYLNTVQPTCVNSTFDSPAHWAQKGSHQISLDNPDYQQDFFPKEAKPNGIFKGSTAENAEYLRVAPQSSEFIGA", "experiment": "Inhibition of EGFR by virtual HTS assay"}, "[11]": {"target": "Proto-oncogene tyrosine-protein kinase Src (Homo sapiens, UniProt P12931)", "sequence (P12931 2-536 limits assumed)": "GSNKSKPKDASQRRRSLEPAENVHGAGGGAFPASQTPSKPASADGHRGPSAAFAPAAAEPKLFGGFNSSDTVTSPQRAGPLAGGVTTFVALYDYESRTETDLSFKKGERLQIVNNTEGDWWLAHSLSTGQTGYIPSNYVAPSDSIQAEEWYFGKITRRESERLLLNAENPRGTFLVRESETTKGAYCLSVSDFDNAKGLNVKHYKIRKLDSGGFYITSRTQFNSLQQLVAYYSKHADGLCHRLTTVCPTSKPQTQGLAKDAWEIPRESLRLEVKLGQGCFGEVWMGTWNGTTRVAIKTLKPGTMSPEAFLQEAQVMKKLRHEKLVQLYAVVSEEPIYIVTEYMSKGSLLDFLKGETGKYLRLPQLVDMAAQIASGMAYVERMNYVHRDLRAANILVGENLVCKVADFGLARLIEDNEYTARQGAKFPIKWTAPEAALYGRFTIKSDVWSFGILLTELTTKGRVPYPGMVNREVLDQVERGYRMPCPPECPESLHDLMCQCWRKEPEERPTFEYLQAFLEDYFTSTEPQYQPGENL", "experiment": "Inhibition of Src by virtual HTS assay"}, "[12]": {"target": "Insulin-like growth factor 1 receptor (Homo sapiens, UniProt P08069)", "sequence (P08069 31-736 limits assumed)": "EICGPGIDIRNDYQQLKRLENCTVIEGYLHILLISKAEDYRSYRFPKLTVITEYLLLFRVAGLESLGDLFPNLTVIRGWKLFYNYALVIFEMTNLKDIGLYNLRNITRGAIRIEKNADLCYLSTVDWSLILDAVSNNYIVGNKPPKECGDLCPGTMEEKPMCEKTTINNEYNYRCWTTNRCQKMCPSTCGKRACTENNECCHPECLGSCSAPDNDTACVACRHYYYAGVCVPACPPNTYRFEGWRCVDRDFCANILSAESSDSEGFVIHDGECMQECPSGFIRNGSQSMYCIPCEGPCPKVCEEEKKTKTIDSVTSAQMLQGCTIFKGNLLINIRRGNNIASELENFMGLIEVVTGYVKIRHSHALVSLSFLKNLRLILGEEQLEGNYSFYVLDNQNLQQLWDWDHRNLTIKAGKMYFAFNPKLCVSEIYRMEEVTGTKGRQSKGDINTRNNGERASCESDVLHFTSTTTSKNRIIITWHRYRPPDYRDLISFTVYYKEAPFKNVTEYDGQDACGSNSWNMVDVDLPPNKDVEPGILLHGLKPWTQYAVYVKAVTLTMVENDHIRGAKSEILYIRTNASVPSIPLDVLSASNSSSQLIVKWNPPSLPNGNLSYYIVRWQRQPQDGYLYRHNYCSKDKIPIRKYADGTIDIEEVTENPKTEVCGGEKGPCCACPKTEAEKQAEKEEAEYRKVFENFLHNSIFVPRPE", "sequence (P08069 741-1367 limits assumed)": "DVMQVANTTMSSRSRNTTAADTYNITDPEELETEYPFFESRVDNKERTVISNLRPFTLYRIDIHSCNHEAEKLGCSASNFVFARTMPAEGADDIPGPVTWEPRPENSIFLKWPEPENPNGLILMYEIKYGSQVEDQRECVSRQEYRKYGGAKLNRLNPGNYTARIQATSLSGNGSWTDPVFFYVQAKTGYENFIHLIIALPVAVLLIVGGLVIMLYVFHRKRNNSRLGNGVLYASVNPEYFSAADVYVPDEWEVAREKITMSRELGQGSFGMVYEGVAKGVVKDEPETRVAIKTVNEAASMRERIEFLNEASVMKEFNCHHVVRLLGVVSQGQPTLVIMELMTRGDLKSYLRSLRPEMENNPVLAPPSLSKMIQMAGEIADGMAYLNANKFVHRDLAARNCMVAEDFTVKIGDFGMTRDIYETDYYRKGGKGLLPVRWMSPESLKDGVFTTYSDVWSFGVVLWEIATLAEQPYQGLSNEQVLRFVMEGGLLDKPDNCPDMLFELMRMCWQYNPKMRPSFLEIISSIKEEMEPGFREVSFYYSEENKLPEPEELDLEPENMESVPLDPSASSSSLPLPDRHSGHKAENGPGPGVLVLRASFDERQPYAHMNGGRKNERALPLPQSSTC", "experiment": "Inhibition of IGF1R by virtual HTS assay"}, "[13]": {"target": "Cyclin-dependent kinase 2 (Homo sapiens, UniProt P24941)", "experiment": "Inhibition of CDK2 by virtual HTS assay"}, "[14]": {"target": "Cyclin-dependent kinase 4 (Homo sapiens, UniProt P11802)", "experiment": "Inhibition of CDK4 by virtual HTS assay"}},
  "data": [
    {"compound": "COc1cc2ncnc(Nc3ccc(F)c(Cl)c3)c2cc1OC", "values": [
      {"measurement": "IC50", "setting": "[1]", "value": 0.51, "unit": "µM"},
      {"measurement": "IC50", "setting": "[2]", "value": 8.3, "unit": "µM"},
      {"measurement": "IC50", "setting": "[3]", "value": 0.48, "unit": "µM"},
      {"measurement": "IC50", "setting": "[4]", "value": 3, "unit": "µM"},
      {"measurement": "IC50", "setting": "[5]", "value": 6.5, "unit": "µM"},
      {"measurement": "IC50", "setting": "[6]", "value": 2.4, "unit": "µM"},
      {"measurement": "IC50", "setting": "[7]", "value": 2.6, "unit": "µM"},
      {"measurement": "IC50", "setting": "[8]", "value": 7.4, "unit": "µM"}
    ]},
    {"compound": "O=C(NC(=S)Nc1ccc(O)c(-c2nc3ccccc3s2)c1)c1ccc([N+](=O)[O-])cc1", "values": [
      {"measurement": "IC50", "setting": "[9]", "value": 0.9, "unit": "µM"},
      {"measurement": "IC50", "setting": "[1]", "value": 3, "unit": "µM"},
      {"measurement": "IC50", "setting": "[10]", "value": 0.28, "unit": "µM"},
      {"measurement": "IC50", "setting": "[2]", "value": 3, "unit": "µM"},
      {"measurement": "IC50", "setting": "[3]", "value": 0.61, "unit": "µM"},
      {"measurement": "IC50", "setting": "[11]", "value": 0.19, "unit": "µM"},
      {"measurement": "IC50", "setting": "[12]", "value": 0.31, "unit": "µM"},
      {"measurement": "IC50", "setting": "[4]", "value": 1, "unit": "µM"},
      {"measurement": "IC50", "setting": "[6]", "value": 1, "unit": "µM"},
      {"measurement": "IC50", "setting": "[13]", "value": 0.7, "unit": "µM"}
    ]},
    {"compound": "Cc1cc2c(Nc3ccc(-c4nc5ccccc5s4)cc3)ncnc2cc1Cl", "values": [
      {"measurement": "IC50", "setting": "[1]", "value": 1, "unit": "µM"},
      {"measurement": "IC50", "setting": "[10]", "value": "> 10", "unit": "µM"},
      {"measurement": "IC50", "setting": "[2]", "value": "> 10", "unit": "µM"},
      {"measurement": "IC50", "setting": "[3]", "value": "> 10", "unit": "µM"},
      {"measurement": "IC50", "setting": "[11]", "value": 0.3, "unit": "µM"},
      {"measurement": "IC50", "setting": "[12]", "value": 3.3, "unit": "µM"},
      {"measurement": "IC50", "setting": "[5]", "value": 2.7, "unit": "µM"},
      {"measurement": "IC50", "setting": "[7]", "value": "> 10", "unit": "µM"},
      {"measurement": "IC50", "setting": "[8]", "value": "> 10", "unit": "µM"}
    ]},
    {"compound": "Fc1cc(-c2nc3ccccc3s2)ccc1Nc1ncnc2cc(Cl)ccc12", "values": [
      {"measurement": "IC50", "setting": "[1]", "value": 0.8, "unit": "µM"},
      {"measurement": "IC50", "setting": "[10]", "value": "> 10", "unit": "µM"},
      {"measurement": "IC50", "setting": "[2]", "value": 1, "unit": "µM"},
      {"measurement": "IC50", "setting": "[3]", "value": 1, "unit": "µM"},
      {"measurement": "IC50", "setting": "[11]", "value": 0.7, "unit": "µM"},
      {"measurement": "IC50", "setting": "[12]", "value": 1.1, "unit": "µM"},
      {"measurement": "IC50", "setting": "[5]", "value": "> 10", "unit": "µM"},
      {"measurement": "IC50", "setting": "[7]", "value": "> 10", "unit": "µM"},
      {"measurement": "IC50", "setting": "[8]", "value": 0.51, "unit": "µM"}
    ]},
    {"compound": "COc1cc2nc(Nc3cc(C)n[nH]3)nc(Nc3ccc(-c4nc5ccccc5s4)cc3)c2cc1OC", "values": [
      {"measurement": "IC50", "setting": "[1]", "value": "> 10", "unit": "µM"},
      {"measurement": "IC50", "setting": "[10]", "value": "> 10", "unit": "µM"},
      {"measurement": "IC50", "setting": "[2]", "value": "> 10", "unit": "µM"},
      {"measurement": "IC50", "setting": "[3]", "value": 3.3, "unit": "µM"},
      {"measurement": "IC50", "setting": "[11]", "value": 3, "unit": "µM"},
      {"measurement": "IC50", "setting": "[12]", "value": 1.65, "unit": "µM"},
      {"measurement": "IC50", "setting": "[5]", "value": 6, "unit": "µM"},
      {"measurement": "IC50", "setting": "[7]", "value": 2.15, "unit": "µM"},
      {"measurement": "IC50", "setting": "[8]", "value": "> 10", "unit": "µM"}
    ]},
    {"compound": "Clc1ccc2c(Nc3ccc(-c4nc5ccccc5s4)cc3)ccnc2c1", "values": [
      {"measurement": "IC50", "setting": "[1]", "value": 0.64, "unit": "µM"},
      {"measurement": "IC50", "setting": "[10]", "value": 5.3, "unit": "µM"},
      {"measurement": "IC50", "setting": "[2]", "value": 7, "unit": "µM"},
      {"measurement": "IC50", "setting": "[3]", "value": 1.4, "unit": "µM"},
      {"measurement": "IC50", "setting": "[11]", "value": 0.63, "unit": "µM"},
      {"measurement": "IC50", "setting": "[12]", "value": 0.86, "unit": "µM"},
      {"measurement": "IC50", "setting": "[5]", "value": 5.7, "unit": "µM"},
      {"measurement": "IC50", "setting": "[7]", "value": 2.7, "unit": "µM"},
      {"measurement": "IC50", "setting": "[8]", "value": 0.75, "unit": "µM"}
    ]},
    {"compound": "COc1cc2ncnc(Nc3ccc(N4Cc5ccccc5C4)cc3)c2cc1OC", "values": [
      {"measurement": "IC50", "setting": "[10]", "value": 1.6, "unit": "µM"},
      {"measurement": "IC50", "setting": "[12]", "value": 7.5, "unit": "µM"},
      {"measurement": "IC50", "setting": "[14]", "value": 6.6, "unit": "µM"},
      {"measurement": "IC50", "setting": "[5]", "value": 5.3, "unit": "µM"},
      {"measurement": "IC50", "setting": "[7]", "value": 7.9, "unit": "µM"},
      {"measurement": "IC50", "setting": "[8]", "value": 0.92, "unit": "µM"}
    ]},
    {"compound": "Cc1cc(Nc2ccnc(Nc3cccc(-c4nc5ccccc5s4)c3)n2)n[nH]1", "values": [
      {"measurement": "IC50", "setting": "[1]", "value": 7.5, "unit": "µM"},
      {"measurement": "IC50", "setting": "[10]", "value": 1.9, "unit": "µM"},
      {"measurement": "IC50", "setting": "[2]", "value": "> 10", "unit": "µM"},
      {"measurement": "IC50", "setting": "[3]", "value": "> 10", "unit": "µM"},
      {"measurement": "IC50", "setting": "[11]", "value": 0.19, "unit": "µM"},
      {"measurement": "IC50", "setting": "[12]", "value": 0.1, "unit": "µM"},
      {"measurement": "IC50", "setting": "[4]", "value": "> 10", "unit": "µM"},
      {"measurement": "IC50", "setting": "[5]", "value": 0.16, "unit": "µM"},
      {"measurement": "IC50", "setting": "[6]", "value": 2.5, "unit": "µM"},
      {"measurement": "IC50", "setting": "[7]", "value": 1.6, "unit": "µM"},
      {"measurement": "IC50", "setting": "[8]", "value": 2, "unit": "µM"}
    ]}
  ]
}
